# Earlier results, collected in paper PMC4026281 (Journal of neurochemistry, 2012).
# Test system: rat α6/3β2 chimeric nAChRs
# Details: cited from earlier work
substance,measurement,value
α-conotoxin MII [α-CtxMII],"t1/2 of recovery from α-CtxMII inhibition, rat α6/3β2 chimeric nAChRs",> 20 min
